What was measured:
[1] = system: rumen fluid; assay: Propionic acid production (VFA) in in vitro rumen fluid fermentation; assay type: cell-based, steer; parameters: Propionic acid production rate: unit not given here
Experimental: (§1) Two separate fermentation models were used to evaluate effects of laidlomycin and laidlomycin phenylcarbamate upon volatile fatty acids (VFA) and lactic acid production. Test compounds were solubilized in absolute ethanol at concentrations of 1 mg/ml and were serially diluted twofold in absolute ethanol through six additional concentrations. Aliquots of 200 μl were transferred to 18×150 mm test tubes, which were used as incubation vessels, and the ethanol was evaporated.
(§2) For both fermentation models rumen fluid from a rumen-fistulated steer, consuming a 100% alfalfa hay diet, was obtained before the morning feeding. The fluid was strained through four layers of cheesecloth, mixed with an equal volume of CO2 -saturated buffer, and 10 ml was transferred to each of the incubation vessels. All tubes were fitted with gas-release stoppers under an atmosphere of CO2 and were incubated in a shaking waterbath at 39° C. […] This medium, designed to be microbiologically nonselective, encouraged VFA production with no accumulation of lactic acid. Buffer used to study lactic acid accumulation (table 1) contained 150 mmol of glucose/liter and had little buffering capacity. This medium favored growth of lactic acid-producing bacteria and allowed rapid production of lactic acid coupled with a precipitous drop in pH from pH 6.2 to less than pH 5 during the course of an incubation.
(§3) Fermentation was terminated at 9 h for the VFA fermentations and at 5.5 h for the lactic acid fermentations by addition of 2 ml of 25% metaphosphoric acid to the incubation tubes. Aliquots were frozen overnight, thawed, centrifuged at 30,000 × g for 10 min and the resulting supernatants analyzed for either L(+)-lactic acid or VFA. The L(+)-lactic acid was analyzed via a specific enzymatic assay in which the concentration of lactic acid in the fermentation broth was quantified by the increase in absorbance of light at 340 nm when nicotinamide adenine dinucleotide was reduced by lactic acid with the aid of L(+)-lactic dehydrogenase. VFA were analyzed via gas chromatography using a Varian chromatograph equipped with a flame ionization detector. Acids were separated on a glass column (0.64×182.9 cm) packed with 10% SP-1200/1% H3 PO4 on Chromosorb-WAW®, 80-100 mesh. This column was obtained pre-packed from Supelco, Inc., Bellefont, Pennsylvania. Chromatographic conditions included a column temperature of 145° C., an injector temperature of 190° C., a detector temperature of 190° C., a carrier gas flow of 45 ml/min and an injection volume of 1 μl.
(§4) Net production rates of all acids were calculated by subtracting the concentration of acids in the incubation fluid before incubation from the concentration determined in each tube after incubation. Molar proportions of acetic, propionic, and butyric acids produced were calculated by dividing the production rate of individual acids by the sum of the production rates of the three acids. Data were analyzed by analysis of variance (SAS, 1979). Comparisons (Duncan's multiple range test) of individual means were made when treatment effects (P<0.05) were indicated.

[2] = system: rumen fluid; assay: L(+)-Lactic acid production in in vitro rumen fluid fermentation; assay type: cell-based, steer; parameters: Lactic acid production rate: unit not given here
Experimental: as §1, §2, §3, §4

[3] = system: Eimeria acervulina and Eimeria maxima; assay: Anticoccidial activity in broiler chicks challenged with Eimeria acervulina and Eimeria maxima; assay type: in vivo; conditions: for Feed efficiency, feed/gain: 7 d; for Feed consumption / Gain / Final weight: cage of 12 chicks; for Final weight / Lesion scores, middle intestine / Lesion scores, upper intestine: 7 days after challenge; for Lesion scores, middle intestine / Lesion scores, upper intestine: scale 0 (least) to 4 (most severe)
Source text: Broiler chicks were reared, 12 per cage, in wire-floored battery cages under conditions which prevented extraneous coccidial infections. All chicks received a nonmedicated starter diet ad libitum until 8 days of age. From 8 days of age until the end of the study, chicks received the test diets which contained either O, 99, 121, 143 or 165 ppm of laidlomycin phenylcarbamate per kg of feed. Three replicate pens per treatment were used for all levels of experimental compounds tested.
At 10 days of age, birds were orally challenged with 200,000 oocycts of the coccidia, Eimeria acervulina, and 20,000 oocysts of Eimeria maxima per bird. The birds were weighed immediately preceding the coccidial challenge and again 7 days later. At 7 days following coccidial challenge, all birds were killed and lesions in the upper and middle sections of the intestinal tracts of six preselected birds per cage were scored on a scale of 0 to 4 based upon their number and severity. Feed present at the time of coccidial challenge and remaining 7 days later was used to determine the effects of compounds upon total feed consumption and feed efficiency.

[4] = Stability at 60° C. in methanol-water, acetate buffer; assay type: physicochemical
Experimental: Laidlomycin phenylcarbamate, laidlomycin isopopylcarbamate and two laidlomycin esters were prepared and their relative stability at 60° C. methanol-water, acetate buffer was determined. A complete list of the esters and carbamates which were tested under these conditions follows: […]

[5] = Stability in soybean millrun feed premix at 60° C.; assay type: physicochemical
Experimental: These materials were then stored at 60° C. and analyzed for starting material at one week. The premix composition is given in Table 5 and the stability data in Table 6.

[6] = all non-zero concentrations, vs unmedicated
[7] = in comparison with laidlomycin acylates

CCC(=O)OC(C(C)C(=O)O)C(C)C1OC2(CCC(C)(C3CCC(C)(C4OC(C5OC(O)(COC(=O)Nc6ccccc6)C(C)CC5C)CC4C)O3)O2)CC(O)C1C (stereo not drawn) [Laidlomycin phenylcarbamate, laidlomycin phenylcarbamate]
Propionate production enhancement (in words) [1]: surprisingly and unexpectedly high
Propionic acid production rate ([1]; 0.31 μg/ml, 9 h): 22.8
Propionic acid production rate ([1]; 0.62 μg/ml, 9 h): 23.4
Propionic acid production rate ([1]; 1.25 μg/ml, 9 h): 25.2
Propionic acid production rate ([1]; 2.50 μg/ml, 9 h): 25.7
Propionic acid production rate ([1]; 5.00 μg/ml, 9 h): 26.9
Propionic acid production rate ([1]; 10.00 μg/ml, 9 h): 27.0
Propionic acid production rate ([1]; 20.00 μg/ml, 9 h): 28.2
Propionic acid production, percentage of control ([1]; 20.00 μg/ml, 9 h, 540 min): 133 % of control
activity at 0.31 µg/mL ([1]; 9 h, 0.31 μg/ml, 9 h, read-out: Propionic acid production, percentage of control): 107%
activity at 1.25 µg/mL ([1]; 9 h, 1.25 μg/ml, 9 h, read-out: Propionic acid production, percentage of control): 118%
activity at 2.5 µg/mL ([1]; 9 h, 2.50 μg/ml, 9 h, read-out: Propionic acid production, percentage of control): 121%
activity at 5 µg/mL ([1]; 9 h, 5.00 μg/ml, 9 h, read-out: Propionic acid production, percentage of control): 126%
activity at 10 µg/mL ([1]; 9 h, 10.00 μg/ml, 9 h, read-out: Propionic acid production, percentage of control): 127%
activity at 20 µg/mL ([1]; 9 h, 20.00 μg/ml, 9 h, read-out: Propionic acid production, percentage of control): > 130%
activity at 0.62 µg/mL ([1]; 9 h, read-out: Propionic acid production, percentage of control, 0.62 μg/ml, 9 h): 110%
Propionic acid production enhancement relative to laidlomycin ([1]; over all concentrations): more potent than laidlomycin (P<0.05)
Lactic acid suppression (in words) [2]: surprisingly and unexpectedly high
Lactic acid production rate ([2]; 0.31 μg/ml, 5.5 h): 28.4
activity at 0.31 µg/mL ([2]; 0.31 μg/ml, 5.5 h, read-out: Lactic acid production, percentage of control): 102%
Lactic acid production rate ([2]; 0.62 μg/ml, 5.5 h): 27.7
activity at 0.62 µg/mL ([2]; 0.62 μg/ml, 5.5 h, read-out: Lactic acid production, percentage of control): 99%
Lactic acid production rate ([2]; 1.25 μg/ml, 5.5 h): 15.6
activity at 1.25 µg/mL ([2]; 1.25 μg/ml, 5.5 h, read-out: Lactic acid production, percentage of control): 56%
Lactic acid production rate ([2]; 2.50 μg/ml, 5.5 h): 6.1
Lactic acid production, percentage of control ([2]; 2.50 μg/ml, 5.5 h): 21 % of control
activity at 2.5 µg/mL ([2]; 2.50 μg/ml, 5.5 h, read-out: Lactic acid production, percentage of control): 21%
Lactic acid production rate ([2]; 5.00 μg/ml, 5.5 h): 3.8
activity at 5 µg/mL ([2]; 5.00 μg/ml, 5.5 h, read-out: Lactic acid production, percentage of control): 13%
Lactic acid production rate ([2]; 10.00 μg/ml, 5.5 h): 4.0
activity at 10 µg/mL ([2]; 10.00 μg/ml, 5.5 h, read-out: Lactic acid production, percentage of control): 14%
Lactic acid production rate ([2]; 20.00 μg/ml, 5.5 h): 3.8
activity at 20 µg/mL ([2]; 20.00 μg/ml, 5.5 h, read-out: Lactic acid production, percentage of control): 13%
Inhibition of lactic acid production relative to laidlomycin ([2]; over all concentrations tested): superior to laidlomycin (P<0.05)
Feed efficiency, feed/gain ([3]; 99 mg/kg of feed): 2.21
Feed consumption ([3]; 99 mg/kg of feed): 3.40 kg/7 d
Gain ([3]; 99 mg/kg of feed): 1.54 kg/7 d
Final weight ([3]; 99 mg/kg of feed): 3.86 kg
Lesion scores, middle intestine ([3]; 99 mg/kg of feed): 1.43
Lesion scores, upper intestine ([3]; 99 mg/kg of feed): 1.20
Feed efficiency, feed/gain ([3]; 121 mg/kg of feed): 2.16
Feed consumption ([3]; 121 mg/kg of feed): 3.19 kg/7 d
Gain ([3]; 121 mg/kg of feed): 1.47 kg/7 d
Final weight ([3]; 121 mg/kg of feed): 3.72 kg
Lesion scores, middle intestine ([3]; 121 mg/kg of feed): 1.57
Lesion scores, upper intestine ([3]; 121 mg/kg of feed): 1.23
Feed efficiency, feed/gain ([3]; 143 mg/kg of feed): 2.19
Feed consumption ([3]; 143 mg/kg of feed): 3.46 kg/7 d
Gain ([3]; 143 mg/kg of feed): 1.58 kg/7 d
Final weight ([3]; 143 mg/kg of feed): 3.97 kg
Lesion scores, middle intestine ([3]; 143 mg/kg of feed): 1.47
Lesion scores, upper intestine ([3]; 143 mg/kg of feed): 0.50
Feed efficiency, feed/gain ([3]; 165 mg/kg of feed): 1.84
Feed consumption ([3]; 165 mg/kg of feed): 3.47 kg/7 d
Gain ([3]; 165 mg/kg of feed): 1.89 kg/7 d
Final weight ([3]; 165 mg/kg of feed): 4.21 kg
Lesion scores, middle intestine ([3]; 165 mg/kg of feed): 0.70
Lesion scores, upper intestine ([3]; 165 mg/kg of feed): 0.66
Protection against coccidiosis ([3]; all non-zero concentrations tested): protection against coccidiosis was afforded by all non-zero concentrations
Lesion scores in the upper and middle intestines (in words) [3, 6]: greatly reduced lesion scores in the upper and middle intestines
Quantity of feed required per unit of gain (in words) [3, 6]: halved the quantity of feed required per unit of gain
Weight gain (in words) [3, 6]: doubled weight gain
half-life ([4]; 60° C., methanol-water, acetate buffer, read-out: t1/2 (converted)): 32.7 days
Stability in solution (in words) [4, 7]: highly stable
Stability in feed premixes (in words) [5, 7]: highly stable
remaining at 168 h ([5]; soybean millrun feed premix, 60° C., one week, soybean millrun premix, 10% (w/w)): 100%
